{
  "source": "patent US9616046B2",
  "about": "“Hepatocyte-proliferating agent” (JAPAN BIO PRODUCTS CO., LTD., priority 2013, dated 2017)",
  "test_system": "rat normal hepatocytes",
  "experiment": "Intracellular signaling pathway analysis using kinase inhibitors (DNA synthesis activity, BrdU ELISA)",
  "type": "cell-based",
  "conditions": "PARI-S001 (pyroglutamic acid 10 mM) plus inhibitor; PD98059, SB203580, LY294002 6.3-50 μM, rapamycin 1.6-12.5 ng/mL; 0.5% DMSO; 22 hours",
  "protocol": "The intracellular signaling pathway analysis was carried out in order to clarify through which intracellular signaling pathway the PARI-S001 promoted cell proliferation activity. PARI-S001 and various kinase inhibitors were used to measure the cell proliferation activity. The measurement method used was the same method as that in the above-described <Normal Cell Proliferation Test>. The rat normal hepatocytes were cultured for 3 hours after seeding, followed by replacement with the medium to which […] (pyroglutamic acid concentration: 10 mM) and each kinase inhibitor were simultaneously added. The concentration of rapamycin (an inhibitor of mTOR) was adjusted to a final concentration of 1.6 ng/mL, 3.1 ng/mL, 6.3 ng/mL, or 12.5 ng/mL. The concentration of PD98059 (an inhibitor of MEK1 and MEK2), SB203580 (an inhibitor of p38 of MAPK), and LY294002 (an inhibitor of PI3K) was adjusted to a final concentration of 6.3 μM, 12.5 μM, 25 μM, or 50 μM. To promote the dissolution of each kinase inhibitor, dimethyl sulfoxide (hereinafter abbreviated as “DMSO”) was added to a final concentration of 0.5% to the medium. Similarly, DMSO was added to a final concentration of 0.5% to the control. Culture was further carried out for 22 hours after medium replacement, followed by evaluating DNA synthesis activity using a Cell Proliferation ELISA BrdU (colorimetric) Kit (Roche Co., Ltd.).",
  "data": [
    {"molecule": "COc1cccc(-c2cc(=O)c3ccccc3o2)c1N", "note": "[PD98059]", "values": [
      {"measurement": "DNA synthesis activity in rat normal hepatocytes on simultaneous addition of PARI-S001 and kinase inhibitor", "result": "suppress DNA synthesis activity in the rat normal hepatocytes depending on the concentration of the inhibitor"}
    ]}
  ]
}
